Assay results from ChEMBL document CHEMBL1156718, “Synthesis of novel aminoquinonoid analogues of diospyrin and evaluation of their inhibitory activity against murine and human cancer cells” (Eur J Med Chem, 2008).
Calls of active or inactive are those of the source. The rule behind the calls is not given here.

Key:
PBMC [1] = test: Selectivity ratio of IC50 for human A375 cells to IC50 for human PBMC cells
Mus musculus [2] = test: Effect on alkaline phosphatase activity in Swiss A mouse xenografted with mouse Ehrlich ascites carcinoma cells assessed as umole of PNPP hydrolysed per minute per decilitre of serum at 1 mg/kg, ip administered five doses in alternate days measured after 16 days relative to control; assay type: functional; design: unit: umol/min/dL; settings: route intraperitoneal
Ehrlich [3] = test: Antitumor activity against mouse Ehrlich ascites carcinoma cells xenografted in Swiss A mouse assessed as inhibition of tumor growth at 1 mg/kg, ip administered five doses in alternate days measured after 16 days; assay type: functional; design: unit not given here; settings: route intraperitoneal
A-375 = test: Cytotoxicity against human A375 cells after 24 hrs by MTT assay; assay type: functional, cell-based; settings: A-375, 24 h
[4] = Toxicity in single ip dosed Swiss A mouse; assay type: organism-based; settings: in vivo
Ehrlich [5] = test: Induction of apoptosis in mouse Ehrlich ascites carcinoma cells assessed as intracellular ROS generation at 0.4 uM after 1 hr by measuring increase in fluorescent intensity relative to control in presence of N-acetyl L-cysteine; assay type: functional, cell-based
PBMC [6] = test: Selectivity ratio of IC50 for human Hep2 cells to IC50 for human PBMC cells
Mus musculus [7] = test: Toxicity in Swiss A mouse xenografted with mouse Ehrlich ascites carcinoma cells assessed as food and water intake at 1 mg/kg, ip administered five doses in alternate days measured after 16 days; assay type: organism-based; design: dose 1 mg/kg, route intraperitoneal; settings: in vivo, 384 h
Mus musculus [8] = test: Effect on serum LDH activity in Swiss A mouse xenografted with mouse Ehrlich ascites carcinoma cells assessed as LDH unit at 1 mg/kg, ip administered five doses in alternate days measured after 16 days relative to control; assay type: functional; design: unit not given here; settings: route intraperitoneal
Ehrlich [9] = test: Cytotoxicity against mouse Ehrlich ascites carcinoma cells after 24 hrs by MTT assay; assay type: functional, cell-based
PBMC [10] = test: Selectivity ratio of IC50 for mouse Ehrlich ascites carcinoma to IC50 for human PBMC cells
Ehrlich [11] = test: Antitumor activity against mouse Ehrlich ascites carcinoma cells xenografted in Swiss A mouse assessed as restoration of lymphocyte infiltration and sinusoid dilation at 1 mg/kg, ip administered five doses in alternate days measured after 16 days by histopathological study relative to untreated control; assay type: functional, organism-based; design: dose 1 mg/kg
HEp-2 = test: Cytotoxicity against human Hep2 cells after 24 hrs by MTT assay; assay type: functional, cell-based; settings: HEp-2, 24 h
Ehrlich [12] = test: Induction of apoptosis in mouse Ehrlich ascites carcinoma cells assessed as intracellular ROS generation at 0.4 uM after 1 hr by measuring increase in fluorescent intensity relative to control; assay type: functional
Ehrlich [13] = test: Antitumor activity against mouse Ehrlich ascites carcinoma cells xenografted in Swiss A mouse assessed as increase in survival time at 1 mg/kg, ip administered five doses in alternate days; assay type: functional; design: unit not given here; settings: route intraperitoneal
Ehrlich [14] = test: Antitumor activity against mouse Ehrlich ascites carcinoma cells xenografted in Swiss A mouse assessed as increase in life span at 1 mg/kg, ip administered five doses in alternate days relative to control; assay type: functional; settings: route intraperitoneal
PBMC [15] = test: Cytotoxicity against human PBMC cells after 24 hrs by MTT assay; assay type: cell-based
Ehrlich [16] = test: Induction of apoptosis in mouse Ehrlich ascites carcinoma cells assessed as intracellular ROS generation after 1 hr; assay type: functional, cell-based
A-431 = test: Cytotoxicity against human A431 cells by MTT assay; assay type: functional, cell-based
K562 = test: Cytotoxicity against human K562 cells by MTT assay; assay type: functional, cell-based
HL-60 = test: Cytotoxicity against human HL60 cells by MTT assay; assay type: functional, cell-based
MCF7 = test: Cytotoxicity against human MCF7 cells by MTT assay; assay type: functional, cell-based

Row | Compound | Activity (Mus musculus [2]) | Activity (Ehrlich [3]) | IC50 (A-375) [nM] | LD50 [4] [mg/kg] | Activity (Mus musculus [8]) | IC50 (Ehrlich [9]) [nM] | IC50 (HEp-2) [nM] | Activity (Ehrlich [13]) | Activity (Ehrlich [14]) [%] | IC50 (PBMC [15]) [µM] | Activity (Ehrlich [16]) | IC50 (A-431) [µM] | IC50 (K562) [µM] | IC50 (HL-60) [µM] | IC50 (MCF7) [µM] | further results
1 | COc1cc(C)cc2c1C(=O)C=C(c1c(C)cc3c(c1OC)C(=O)C(NC(C)=O)=CC3=O)C2=O | 5.5 | 3.3 | 60 | > 60 | 26.3 | 60 | 920 | 35.7 | 93 | 86.5 |  |  |  |  |  | Selectivity ratio (PBMC [1]): 100; Activity (Ehrlich [5]): inactive; Selectivity ratio (PBMC [6]): 100; Activity (Mus musculus [7]): Non-toxic; Selectivity ratio (PBMC [10]): 100; Activity (Ehrlich [11]): Active; Activity (Ehrlich [12]): 9
2 | COc1cc(C)cc2c1C(=O)C=C(c1c(C)cc3c(c1OC)C(=O)C(NCc1ccccc1)=CC3=O)C2=O | 3.1 | 3 | 550 |  | 31.8 | 1410 | 2610 | 28.4 | 47 | > 100 | Dose-dependent effect |  |  |  |  | 
3 | COc1cc(C)cc2c1C(=O)C=C(c1c(C)cc3c(c1OC)C(=O)C=CC3=O)C2=O | 4.9 | 2.9 |  | 45 | 25.5 |  |  | 29.8 | 57 |  |  | 28.2 | > 100 | 64.1 | 46.4 | 
4 | CCOC(=O)CNC1=CC(=O)c2cc(C)c(C3=CC(=O)c4c(OC)cc(C)cc4C3=O)c(OC)c2C1=O | 5.9 | 2.3 | 570 |  | 24.6 | 90 | 860 | 34.9 | 81 | 96.2 | Dose-dependent effect |  |  |  |  | Activity (Ehrlich [5]): inactive; Activity (Ehrlich [12]): 9
5 | Cc1cc(O)c2c(c1)C(=O)C(c1c(C)cc3c(c1O)C(=O)C=CC3=O)=CC2=O [DIOSPYRIN] | 3.7 | 4.3 |  | 25 | 16.3 |  |  | 23.2 | 36 |  |  | 65.3 | > 100 | > 100 | 74.8 | 
6 | COc1cc(C)cc2c1C(=O)C=C(c1c(C)cc3c(c1OC)C(=O)C(N)=CC3=O)C2=O | 4.4 | 3.4 | 3240 |  | 34.7 | 350 | 3510 | 31.5 | 72 | > 100 | Dose-dependent effect |  |  |  |  | 
7 | COc1cc(C)cc2c1C(=O)C=C(c1c(C)cc3c(c1OC)C(=O)C(Nc1ccc4ccccc4c1)=CC3=O)C2=O | 5.4 | 2.9 | 80 |  | 23.5 | 240 | 2040 | 34 | 67 | 73.8 | Dose-dependent effect |  |  |  |  | 
8 | COc1cc(C)cc2c1C(=O)C(N)=C(c1c(C)cc3c(c1OC)C(=O)C(N)=CC3=O)C2=O | 4.9 | 3.9 | 1930 |  | 37.5 | 370 | 2340 | 30 | 62 | 40.6 |  |  |  |  |  | 
9 | CCOc1cc(C)cc2c1C(=O)C=C(c1c(C)cc3c(c1OCC)C(=O)C=CC3=O)C2=O |  |  |  |  |  |  |  |  |  |  |  | 15.9 | 40.2 | 30.1 | 18.9 | 
10 | COc1cc(C)cc2c1C(=O)C=C(c1c(C)cc3c(c1OC)C(=O)C(Nc1ccc(Cl)cc1)=CC3=O)C2=O | 6.4 | 2.7 | 630 |  | 25.5 | 250 | 650 | 34.3 | 69 | 44.9 | Dose-dependent effect |  |  |  |  | 
